# Tested on: yeast genes (expressed mRNA)
# Test: DNA chip measurement of expressed mRNA of yeast genes after culture with a toxic chemical substance
# Assay type: cell-based, Saccharomyces cerevisiae S288C
# Details: for level of expressed mRNA in the presence of chemical substance / level in the absence of chemical substance: cultured two hours with the chemical substance; for The level of expressed mRNA in the presence of chemical substance/The level of expressed mRNA in the absence of chemical substance: cultured two hours with substance
# Method: Yeast (Saccharomyces cerevisiae S288C (a SUC2mal mel gap2 CUP1)) were cultured at 25° C. on YPD medium (yeast extract 1%, polypeptone 2%, glucose 2%). One of toxic chemical substances was added to the cell at logarithmic growth phase, and the cell was further cultured for two hours. Cell was cultured without any chemical substance in the same condition, and was used as a control. Concentrations of the chemical substances were defined to inhibit the growth of the yeast but not lead to death.
# After the completion of cultivation, the culture was centrifuged to collect the cells. To the cells, sodium acetate buffer (50 mM sodium acetate, 10 mM EDTA, 1% SDS) was added, and the mixture was shaken at 65° C. for five minutes, followed by returning to room temperature, and obtaining the supernatant, which procedure was repeated two times. To the supernatant, ½ amount of a solution of phenol/chloroform (1:1) was added, and the mixture was centrifuged to give a supernatant, an equal amount of chloroform was added, and the mixture was centrifuged to give a supernatant. To the supernatant, an equal amount of isopropanol containing 0.3 M sodium acetate was added, and the mixture was allowed to stand at room temperature for 30 minutes, after which the mixture was centrifuged to give sediment of the whole RNAs. Seventy % ethanol was added to the sediment, and the mixture was again centrifuged to give sediment, which was then dried and dissolved in water. mRNA was isolated from the whole RNAs as followings. In view of the fact that a poly A chain is attached to the 3′ terminus of mRNA, a polynucleotide having a poly T structure which was immobilized on the surface of latex beads was used to trap the mRNA, and then the mRNA was washed and eluted with spine column (Oligotex-dT30<Super>mRNA Purification Kit, Takara). Reverse transcription of the mRNA was conducted with a reverse transcriptase (Super Script II Reverse Transcriptase; catalogue No. 18064-014, GibcoBRL) using fluorescence-labeled nucleotides to give cDNAs that were introduced with Cy3-dUTP or Cy5-dUTP during the reverse transcription.
# The labeled cDNAs were dissolved in TE buffer (10 mM Tris-HCl/1 mM EDTA, pH 8.0), and the solution was dropped on the DNA chip containing the whole genes of yeast (DNA Chip Research Inc. Japan) so that the cDNAs were hybridized on the DNA chip at 65° C. for over 12 hours. The fluoresces intensity of the DNA chip was read with a scanner, and the ratio relative to the fluorescence intensity resulting from the absence of chemical substance was estimated as the following, which is shown in Tables 1 to 9.
# In the Tables, “Intensity” indicated in the rightmost column is a value of the level of expressed mRNA of each gene in control cells as divided by the average level of the expressions of the whole genes. A gene of which mRNA level is lower in control, and is higher in cases of addition of chemical substance, is especially useful in the detection of toxic substances.
# Here, when a ratio of an amount of mRNA expressed in the presence of the chemical substance to an amount of mRNA expressed in the absence of the chemical substance is two or more, then it is considered significant.
smiles,measurement,setting,value
"[Cl][Cd][Cl] [(2), CdCl2]",level of expressed mRNA in the presence of chemical substance / level in the absence of chemical substance,yeast gene YDR128W,3.9
same,level of expressed mRNA in the presence of chemical substance / level in the absence of chemical substance,yeast gene YDR133C,1.1
same,level of expressed mRNA in the presence of chemical substance / level in the absence of chemical substance,yeast gene YDR250C,1.4
same,level of expressed mRNA in the presence of chemical substance / level in the absence of chemical substance,yeast gene YDR278C,3.2
same,level of expressed mRNA in the presence of chemical substance / level in the absence of chemical substance,yeast gene YDR281C,2.6
same,The level of expressed mRNA in the presence of chemical substance/The level of expressed mRNA in the absence of chemical substance,yeast gene YDR330W,1.5
same,level of expressed mRNA in the presence of chemical substance / level in the absence of chemical substance,yeast gene YDR366C,2.0
same,The level of expressed mRNA in the presence of chemical substance/The level of expressed mRNA in the absence of chemical substance,yeast gene YDR411C,2.8
same,The level of expressed mRNA in the presence of chemical substance/The level of expressed mRNA in the absence of chemical substance,yeast gene YDR511W,1.7
same,The level of expressed mRNA in the presence of chemical substance/The level of expressed mRNA in the absence of chemical substance,yeast gene YDR545W,1.2
same,The level of expressed mRNA in the presence of chemical substance/The level of expressed mRNA in the absence of chemical substance,yeast gene YEL001C,1.0
same,The level of expressed mRNA in the presence of chemical substance/The level of expressed mRNA in the absence of chemical substance,yeast gene YER004W,1.5
same,The level of expressed mRNA in the presence of chemical substance/The level of expressed mRNA in the absence of chemical substance,yeast gene YER035W,1.6
same,The level of expressed mRNA in the presence of chemical substance/The level of expressed mRNA in the absence of chemical substance,yeast gene YER079W,1.6
same,The level of expressed mRNA in the presence of chemical substance/The level of expressed mRNA in the absence of chemical substance,yeast gene YER106W,0.7
same,The level of expressed mRNA in the presence of chemical substance/The level of expressed mRNA in the absence of chemical substance,yeast gene YER158C,0.9
same,The level of expressed mRNA in the presence of chemical substance/The level of expressed mRNA in the absence of chemical substance,yeast gene YER163C,2.4
same,The level of expressed mRNA in the presence of chemical substance/The level of expressed mRNA in the absence of chemical substance,yeast gene YER175C,1.2
same,The level of expressed mRNA in the presence of chemical substance/The level of expressed mRNA in the absence of chemical substance,yeast gene YFL006W,2.8
same,The level of expressed mRNA in the presence of chemical substance/The level of expressed mRNA in the absence of chemical substance,yeast gene YFL010C,4.8
same,The level of expressed mRNA in the presence of chemical substance/The level of expressed mRNA in the absence of chemical substance,yeast gene YFL024C,1.1
same,The level of expressed mRNA in the presence of chemical substance/The level of expressed mRNA in the absence of chemical substance,yeast gene YFL032W,1.5
same,level of expressed mRNA in the presence of chemical substance / level in the absence of chemical substance,yeast gene YFR026C,2.0
same,The level of expressed mRNA in the presence of chemical substance/The level of expressed mRNA in the absence of chemical substance,yeast gene YGL037C,2.7
same,The level of expressed mRNA in the presence of chemical substance/The level of expressed mRNA in the absence of chemical substance,yeast gene YGL047W,1.9
same,The level of expressed mRNA in the presence of chemical substance/The level of expressed mRNA in the absence of chemical substance,yeast gene YGL053W,1.5
same,level of expressed mRNA in the presence of chemical substance / level in the absence of chemical substance,yeast gene YGL088W,2.1
same,The level of expressed mRNA in the presence of chemical substance/The level of expressed mRNA in the absence of chemical substance,yeast gene YGL121C,5.0
same,The level of expressed mRNA in the presence of chemical substance/The level of expressed mRNA in the absence of chemical substance,yeast gene YGL199C,1.7
same,level of expressed mRNA in the presence of chemical substance / level in the absence of chemical substance,yeast gene YGR038W,1.2
same,The level of expressed mRNA in the presence of chemical substance/The level of expressed mRNA in the absence of chemical substance,yeast gene YGR101W,1.3
same,The level of expressed mRNA in the presence of chemical substance/The level of expressed mRNA in the absence of chemical substance,yeast gene YGR110W,3.1
same,The level of expressed mRNA in the presence of chemical substance/The level of expressed mRNA in the absence of chemical substance,yeast gene YGR130C,0.7
same,level of expressed mRNA in the presence of chemical substance / level in the absence of chemical substance,yeast gene YGR139W,3.7
same,The level of expressed mRNA in the presence of chemical substance/The level of expressed mRNA in the absence of chemical substance,yeast gene YGR154C,2.9
same,The level of expressed mRNA in the presence of chemical substance/The level of expressed mRNA in the absence of chemical substance,yeast gene YGR221C,2.2
same,level of expressed mRNA in the presence of chemical substance / level in the absence of chemical substance,yeast gene YGR243W,2.2
same,level of expressed mRNA in the presence of chemical substance / level in the absence of chemical substance,yeast gene YGR293C,1.9
same,level of expressed mRNA in the presence of chemical substance / level in the absence of chemical substance,yeast gene YHL006C,1.4
same,level of expressed mRNA in the presence of chemical substance / level in the absence of chemical substance,yeast gene YHR095W,2.6
same,level of expressed mRNA in the presence of chemical substance / level in the absence of chemical substance,yeast gene YHR105W,0.8
same,The level of expressed mRNA in the presence of chemical substance/The level of expressed mRNA in the absence of chemical substance,yeast gene YHR138C,1.8
same,level of expressed mRNA in the presence of chemical substance / level in the absence of chemical substance,yeast gene YHR181W,0.7
same,The level of expressed mRNA in the presence of chemical substance/The level of expressed mRNA in the absence of chemical substance,yeast gene YHR199C,2.0
same,The level of expressed mRNA in the presence of chemical substance/The level of expressed mRNA in the absence of chemical substance,yeast gene YIL023C,1.2
same,The level of expressed mRNA in the presence of chemical substance/The level of expressed mRNA in the absence of chemical substance,yeast gene YIL041W,1.2
same,The level of expressed mRNA in the presence of chemical substance/The level of expressed mRNA in the absence of chemical substance,yeast gene YIL087C,1.9
same,level of expressed mRNA in the presence of chemical substance / level in the absence of chemical substance,yeast gene YIL127C,4.8
same,level of expressed mRNA in the presence of chemical substance / level in the absence of chemical substance,yeast gene YJL017W,1.7
same,level of expressed mRNA in the presence of chemical substance / level in the absence of chemical substance,yeast gene YJL037W,1.4
same,The level of expressed mRNA in the presence of chemical substance/The level of expressed mRNA in the absence of chemical substance,yeast gene YJL057C,1.2
same,The level of expressed mRNA in the presence of chemical substance/The level of expressed mRNA in the absence of chemical substance,yeast gene YJL066C,1.2
same,The level of expressed mRNA in the presence of chemical substance/The level of expressed mRNA in the absence of chemical substance,yeast gene YJL082W,0.8

# — patent publication US20100041089A1, “IMPROVED METHOD FOR DETECTING CHEMICAL […]” (priority 2006, published 2010)
